IC50 and inhibition data for two molecules are collected here from ChEMBL document CHEMBL4041521, “3-Aroylindoles display antitumor activity in vitro and in vivo: Effects of N1-substituents on biological activity” (Eur J Med Chem, 2017).

Each structure is given as a SMILES string. pIC50: −log10 of the molar value. Active and inactive are the calls of the source. The rule behind the calls is not given here.

Test [1] in a line: Inhibition of HDAC activity in human HeLa cell nuclear extract using fluorometric substrate measured after 30 mins by fluorescence assay. It is filed as cell-based.
For test [2], the system named is HCT-116. Briefly: Antiproliferative activity against human HCT116 cells measured after 48 hrs by sulforhodamine-B assay. It is filed as functional, cell-based. The note with it: HCT-116, 48 h.
For test [3], the species on record is Sus scrofa. Briefly: Inhibition of purified porcine tubulin polymerization at 1 to 10 uM measured every 1 min for 30 mins.
In test [4] the target is Histone deacetylase 1 (Homo sapiens, UniProt Q13547). Briefly: Inhibition of recombinant human HDAC1 using fluorogenic substrate by fluorescence assay.
Sequence of Histone deacetylase 1 (Q13547 whole entry): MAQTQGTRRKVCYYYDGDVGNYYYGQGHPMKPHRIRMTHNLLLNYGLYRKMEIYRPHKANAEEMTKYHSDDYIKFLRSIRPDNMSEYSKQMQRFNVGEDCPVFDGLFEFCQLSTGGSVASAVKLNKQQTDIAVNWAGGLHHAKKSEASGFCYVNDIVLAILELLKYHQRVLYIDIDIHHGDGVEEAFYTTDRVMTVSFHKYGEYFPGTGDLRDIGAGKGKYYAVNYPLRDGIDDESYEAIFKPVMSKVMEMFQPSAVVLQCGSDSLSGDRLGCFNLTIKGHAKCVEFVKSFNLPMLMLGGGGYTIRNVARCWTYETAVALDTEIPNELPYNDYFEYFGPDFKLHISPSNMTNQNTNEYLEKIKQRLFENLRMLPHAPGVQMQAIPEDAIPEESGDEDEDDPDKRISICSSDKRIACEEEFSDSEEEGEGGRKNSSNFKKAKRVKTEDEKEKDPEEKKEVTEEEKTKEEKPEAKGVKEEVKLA
In test [5] the target is T1, Protein deacetylase HDAC6 (Homo sapiens, UniProt Q9UBN7).
T1 sequence (Q9UBN7 whole entry): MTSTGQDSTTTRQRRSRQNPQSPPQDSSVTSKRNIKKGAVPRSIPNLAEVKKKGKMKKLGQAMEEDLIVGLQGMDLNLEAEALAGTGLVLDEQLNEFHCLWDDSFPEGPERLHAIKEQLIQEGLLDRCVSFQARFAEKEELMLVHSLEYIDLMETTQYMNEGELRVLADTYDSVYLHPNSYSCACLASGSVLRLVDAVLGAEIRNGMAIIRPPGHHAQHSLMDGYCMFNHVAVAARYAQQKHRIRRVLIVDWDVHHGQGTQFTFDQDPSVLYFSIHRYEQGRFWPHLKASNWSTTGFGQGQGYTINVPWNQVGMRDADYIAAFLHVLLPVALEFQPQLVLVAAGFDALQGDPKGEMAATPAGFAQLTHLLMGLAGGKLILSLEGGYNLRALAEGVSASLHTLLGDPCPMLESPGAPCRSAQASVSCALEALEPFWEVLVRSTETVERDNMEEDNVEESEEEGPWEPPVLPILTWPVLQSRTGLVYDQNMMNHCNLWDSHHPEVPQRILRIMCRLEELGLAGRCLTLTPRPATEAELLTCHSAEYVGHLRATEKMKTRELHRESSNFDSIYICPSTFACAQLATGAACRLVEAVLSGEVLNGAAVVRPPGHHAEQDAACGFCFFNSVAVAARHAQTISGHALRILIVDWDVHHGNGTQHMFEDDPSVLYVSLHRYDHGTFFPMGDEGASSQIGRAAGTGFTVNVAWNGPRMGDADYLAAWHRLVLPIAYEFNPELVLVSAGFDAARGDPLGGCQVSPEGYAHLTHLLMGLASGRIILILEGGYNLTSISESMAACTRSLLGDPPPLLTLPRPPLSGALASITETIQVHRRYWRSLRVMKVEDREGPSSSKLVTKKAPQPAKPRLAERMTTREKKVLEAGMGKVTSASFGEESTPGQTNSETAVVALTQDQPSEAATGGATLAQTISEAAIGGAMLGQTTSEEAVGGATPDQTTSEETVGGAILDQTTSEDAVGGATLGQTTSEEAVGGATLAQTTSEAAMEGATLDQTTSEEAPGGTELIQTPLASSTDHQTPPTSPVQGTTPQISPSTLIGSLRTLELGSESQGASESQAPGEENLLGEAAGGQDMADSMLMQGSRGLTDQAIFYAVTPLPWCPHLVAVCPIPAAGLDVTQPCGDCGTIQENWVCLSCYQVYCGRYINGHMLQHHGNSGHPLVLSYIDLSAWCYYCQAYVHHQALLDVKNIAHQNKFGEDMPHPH
Briefly: Inhibition of recombinant human HDAC6 using fluorogenic substrate by fluorescence assay.

Test [6] concerns the target T2, Histone deacetylase 8 (Homo sapiens, UniProt Q9BY41).
T2 sequence (Q9BY41 whole entry): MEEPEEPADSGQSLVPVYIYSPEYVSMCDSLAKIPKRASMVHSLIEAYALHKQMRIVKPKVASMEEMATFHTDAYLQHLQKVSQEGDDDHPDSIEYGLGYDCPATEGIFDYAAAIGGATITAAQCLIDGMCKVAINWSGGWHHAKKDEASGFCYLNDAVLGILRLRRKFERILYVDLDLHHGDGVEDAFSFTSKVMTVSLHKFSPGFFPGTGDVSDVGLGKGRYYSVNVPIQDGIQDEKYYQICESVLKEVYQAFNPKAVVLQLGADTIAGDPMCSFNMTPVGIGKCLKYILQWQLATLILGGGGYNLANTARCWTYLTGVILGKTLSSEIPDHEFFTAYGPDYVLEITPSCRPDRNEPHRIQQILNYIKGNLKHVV
Description: Inhibition of recombinant human HDAC8 using fluorogenic substrate by fluorescence assay.

In test [7] the target is Histone deacetylase 9 (Homo sapiens, UniProt Q9UKV0). Description: Inhibition of recombinant human HDAC9 using fluorogenic substrate by fluorescence assay.
Sequence of Histone deacetylase 9 (Q9UKV0 whole entry): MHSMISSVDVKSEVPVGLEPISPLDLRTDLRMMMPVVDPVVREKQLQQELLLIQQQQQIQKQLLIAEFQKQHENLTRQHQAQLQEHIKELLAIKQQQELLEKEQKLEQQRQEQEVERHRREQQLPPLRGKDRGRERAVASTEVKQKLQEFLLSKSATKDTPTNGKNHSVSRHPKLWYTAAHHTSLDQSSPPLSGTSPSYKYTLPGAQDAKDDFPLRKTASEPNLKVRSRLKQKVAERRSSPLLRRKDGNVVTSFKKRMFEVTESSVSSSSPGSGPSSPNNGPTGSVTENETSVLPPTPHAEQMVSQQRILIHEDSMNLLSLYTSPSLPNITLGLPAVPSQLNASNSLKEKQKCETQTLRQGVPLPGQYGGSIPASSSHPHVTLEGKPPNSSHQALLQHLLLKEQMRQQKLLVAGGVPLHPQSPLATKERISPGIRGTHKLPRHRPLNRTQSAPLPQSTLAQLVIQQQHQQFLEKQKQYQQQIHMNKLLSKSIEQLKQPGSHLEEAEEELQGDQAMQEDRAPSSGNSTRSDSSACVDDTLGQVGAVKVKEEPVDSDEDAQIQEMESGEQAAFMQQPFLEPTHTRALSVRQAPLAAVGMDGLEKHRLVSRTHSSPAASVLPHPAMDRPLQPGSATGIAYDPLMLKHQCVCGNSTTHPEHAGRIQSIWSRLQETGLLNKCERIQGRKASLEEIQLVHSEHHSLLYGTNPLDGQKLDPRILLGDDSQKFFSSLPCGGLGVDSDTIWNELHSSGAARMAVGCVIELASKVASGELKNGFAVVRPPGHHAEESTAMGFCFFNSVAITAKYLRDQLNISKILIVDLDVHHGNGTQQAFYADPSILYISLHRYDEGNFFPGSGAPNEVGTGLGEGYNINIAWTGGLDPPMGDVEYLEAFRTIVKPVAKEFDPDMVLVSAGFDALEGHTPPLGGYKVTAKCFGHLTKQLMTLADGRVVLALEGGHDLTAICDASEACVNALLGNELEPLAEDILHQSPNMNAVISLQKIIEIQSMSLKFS
Test [8] has as its target T3, Polyamine deacetylase HDAC10 (Homo sapiens, UniProt Q969S8).
T3 sequence (Q969S8 whole entry): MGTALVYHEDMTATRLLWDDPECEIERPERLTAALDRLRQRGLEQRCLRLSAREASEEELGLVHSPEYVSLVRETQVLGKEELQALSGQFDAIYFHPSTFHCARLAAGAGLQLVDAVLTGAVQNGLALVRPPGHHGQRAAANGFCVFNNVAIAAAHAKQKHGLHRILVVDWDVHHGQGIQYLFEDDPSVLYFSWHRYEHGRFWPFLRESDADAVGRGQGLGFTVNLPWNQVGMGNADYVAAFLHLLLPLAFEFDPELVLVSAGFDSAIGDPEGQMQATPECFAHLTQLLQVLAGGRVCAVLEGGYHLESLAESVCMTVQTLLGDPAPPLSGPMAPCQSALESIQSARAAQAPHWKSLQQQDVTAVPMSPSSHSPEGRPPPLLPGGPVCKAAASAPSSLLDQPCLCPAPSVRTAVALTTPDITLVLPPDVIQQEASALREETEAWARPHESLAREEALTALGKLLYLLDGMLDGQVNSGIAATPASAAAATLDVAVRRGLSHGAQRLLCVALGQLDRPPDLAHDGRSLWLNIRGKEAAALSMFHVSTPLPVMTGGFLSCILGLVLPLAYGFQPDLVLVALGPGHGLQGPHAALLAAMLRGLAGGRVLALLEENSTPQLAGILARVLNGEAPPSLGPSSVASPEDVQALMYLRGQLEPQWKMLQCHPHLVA
Description: Inhibition of recombinant human HDAC10 using fluorogenic substrate by fluorescence assay.

For test [9], the target named is T4, Histone deacetylase 11 (Homo sapiens, UniProt Q96DB2).
T4 sequence (Q96DB2 whole entry): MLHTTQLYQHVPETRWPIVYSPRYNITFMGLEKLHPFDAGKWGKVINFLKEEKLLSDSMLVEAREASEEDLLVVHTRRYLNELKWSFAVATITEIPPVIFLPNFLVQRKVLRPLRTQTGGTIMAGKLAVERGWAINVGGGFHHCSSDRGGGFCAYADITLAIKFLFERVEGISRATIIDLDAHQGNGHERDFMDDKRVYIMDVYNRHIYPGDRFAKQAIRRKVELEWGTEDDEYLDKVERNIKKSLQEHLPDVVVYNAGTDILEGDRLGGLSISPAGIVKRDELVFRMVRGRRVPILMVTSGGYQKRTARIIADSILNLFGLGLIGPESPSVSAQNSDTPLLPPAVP
Briefly: Inhibition of recombinant human HDAC11 using fluorogenic substrate by fluorescence assay.

The species entered for test [10] is Homo sapiens. Briefly: Inhibition of tubulin polymerization in human PC3 cells assessed as […] in MPM2 expression at 0.01 to 10 uM by Western blot analysis. It is filed as cell-based.

As for `COc1ccc2c(C(=O)c3cc(OC)c(OC)c(OC)c3)cn(Cc3ccc(C(=O)NO)cc3)c2c1`, the pIC50 in test [1] is 6.21; in test [2], 6.31; in test [4] it was 6.24; in test [5] it was 7.19; in test [6] it was 6.41; in test [7] (read-out: IC50) it was 5.77. For the same molecule, the values for the pIC50 in [8] (read-out: IC50) and in test [9] were 5.08 and 6.19, respectively. Moreover, the inhibition result in test [3] and in [10] was “Active” each time.
As to `COc1ccc2c(C(=O)c3cc(OC)c(OC)c(OC)c3)cn(S(=O)(=O)c3cccc(/C=C/C(=O)NO)c3)c2c1`, the pIC50 was 6.87 in test [1]; 7.36 in test [2]; 6.33 in test [4]; 6.56 in test [5]; 4.79 in test [6]; 5.05 in test [9]. Also, the inhibition result in test [3] and in test [10] was “Active” each time. The IC50 entry in test [7] and in test [8] was “Not Active” each time.
